Each structure is given as a SMILES string. Entries after “also recorded” stand apart in the source; their conditions may differ.

One experiment deals with ERK phosphorylation. Briefly: Total and phosphoERK after AVP stimulation of 22Rv1 with AVPR1a antagonist pretreatment (FIG. 18). The experiment is classed as cell-based, human. The following applies: 10 nM AVP, 25 minutes. As to the method:
Total and phosphoERK levels were assessed following stimulation of 22Rv1 with 10 nM AVP for 25 minutes and pretreatment with AVPR1a antagonist (or vehicle control).

For the next experiment, the system named is 22Rv1 cells. Kind of experiment: AVP treatment of 22Rv1 cells, live cell counting (Example 9). The experiment is classed as cell-based, human. The note with it: 1 nM, 10 nM or 1 μM AVP, six days. As to the method: (§1) The effect of arginine vasopressin on the proliferation of a castration-resistant prostate cancer cell line (i.e., 22Rv1) was evaluated. Briefly, 22RV1 cells were treated with 1 nM, 10 nM or 1 μM arginine vasopressin (AVP) for six days followed by live cell counting.

The next experiment concerns RWPE1 cells. Briefly: AVP effect on normal prostate epithelial cell proliferation. The experiment is classed as cell-based, human. The procedure: (§2) FIG. 9A-9D. […] (A) 22Rv1, (B) CWR-R1, (C) PC3, or (D) RWPE-1 cells were plated at 10,000 cells/well in 24 well dishes and then treated with vehicle or arginine vasopressin (AVP) at the indicated concentrations the following day. Media were changed every day. Cells were harvested six days post treatment. Data represent four experiments performed in triplicate and are plotted as fold (treatment/vehicle)±SEM. Significance was determined using a Student's t-test comparing to vehicle controls (**, p<0.01).
as §1

A further experiment has as its system 22Rv1, CWR-R1, PC3 cells. Briefly: AVP stimulation of castration resistant prostate cancer cell proliferation (FIG. 9). The experiment is classed as cell-based, human. The following applies: 1 nM AVP; six days. As to the method: as §2
A further experiment concerns ERK1/2 phosphorylation. Briefly: Phospho-ERK1/2 immunoblot, AVP plus/minus Relcovaptan (FIG. 10). The experiment is classed as cell-based, human. The following applies: 22Rv1 or CWR-R1; 1 nM AVP; 25 min. From the text: FIG. 10. […] Lysates were immunoblotted for phospho-ERK1/2 and total ERK1/2.
For orientation: A western blot detects proteins with antibodies after separation by electrophoresis.

Experiment [1] concerns AVP type V1a and V2 receptors. The note with it: cited from earlier work.

Consider `NC(=O)CC[C@@H]1NC(=O)[C@H](Cc2ccccc2)NC(=O)[C@H](Cc2ccc(O)cc2)NC(=O)[C@@H](N)CSSC[C@@H](C(=O)N2CCC[C@H]2C(=O)N[C@@H](CCCN=C(N)N)C(=O)NCC(N)=O)NC(=O)[C@H](CC(N)=O)NC1=O` [AVP, arginine vasopressin], for which the phosphoERK levels entry with ERK phosphorylation is “increased phosphoERK levels”. For the same compound, in the experiment with 22Rv1 cells, the CRPC proliferation result is recorded as “stimulated CRPC proliferation”. In the experiment on RWPE1 cells (1 nM AVP, six days), the “growth of normal RWPE1 cells” value is “did not stimulate growth”. The RWPE1 cell proliferation result with RWPE1 cells (Example 9, data not shown) is listed as “did not stimulate RWPE1 cell proliferation”. Moreover, the “proliferation of RWPE-1” value with RWPE1 cells (higher AVP doses) is “Decreased proliferation”. The PC cell proliferation result in the experiment with 22Rv1, CWR-R1, PC3 cells is listed as “increased PC cell proliferation; also recorded: stimulates castration resistant prostate cancer cell proliferation”. For the same compound, in the experiment with ERK1/2 phosphorylation, the “ERK 1/2 phosphorylation (activation)” value is “activated ERK 1/2; also recorded: stimulates ERK1/2 phosphorylation”.
As for `Cc1nc2c([nH]1)-c1ccccc1N(C(=O)c1ccc(NC(=O)c3ccccc3-c3ccccc3)cc1)CC2` [Conivaptan], the “AVP receptor blockade / selectivity” value in experiment [1] was “non-selectively blocks both AVP type V1a and V2 receptors”.

The record behind these values is US10231952B2, “Use of arginine vasopressin receptor antagonists for the treatment of prostate cancer” (UNIVERSITY OF MIAMI, priority 2014, dated 2019).
